Results taken from patent US11814367B2, “Inhibitors of glycogen synthase 1 (GYS1) and methods of use thereof” (Maze Therapeutics, Inc., priority 2021, dated 2023).

Columns and labels:
[1] = tested on: hGYS1 enzyme / glycogen synthesis in HeLa cells; assay: GYS1 cell based assay (glycogen synthesis, Glucose-glo); design: species or system human; conditions: Homo sapiens, HeLa, 24 h, 24 h incubation, 20 mM glucose, geometric mean of at least 2 runs
Procedure, shortened: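 HeLa cells starved 24 h in medium containing only 1× Glutamax were plated onto compound in medium with 20 mM glucose (1% DMSO final) for 24 h, 37 °C, 5% CO2. Acid lysates were Tris-quenched, glucoamylase-digested (pH 5.3, 1 h, 37 °C) and read by Glucose-glo luminescence. IC50 came from Hill fits, as geometric mean of ≥2 runs.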

[2] = target: hGYS1 enzyme (recombinant hGYS1/GN1 protein) (Homo sapiens (Human), UniProt P13807); assay: GYS1 coupled enzyme assay (PK/LDH); assay type: biochemical; conditions: hGYS1/GN1 50 nM, UDP-Glucose 0.8 mM, G6P 1 mM; geometric mean of at least 2 runs
[3] = target: hGYS2 enzyme (recombinant hGYS2/GN1 protein) (Homo sapiens (Human), UniProt P54840); assay: GYS2 coupled enzyme assay (PK/LDH); assay type: biochemical; conditions: geometric mean of at least 2 assay runs on separate days, read-out: Avg_IC50
Procedure, shortened: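 hGYS2/GN1 200 nM; UDP-Glc 2 mM; glycogen 0.2%; G6P 2 mM; PEP 2 mM, NADH 0.6 mM, PK/LDH 20 U/mL. 50 mM Tris pH 7.5, MgCl2, KCl, BSA, TCEP, 2.5% DMSO. Kinetic A340, 10 min. IC50 = geomean of ≥2 runs.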

Chain of hGYS1 enzyme (recombinant hGYS1/GN1 protein) (P13807 whole entry): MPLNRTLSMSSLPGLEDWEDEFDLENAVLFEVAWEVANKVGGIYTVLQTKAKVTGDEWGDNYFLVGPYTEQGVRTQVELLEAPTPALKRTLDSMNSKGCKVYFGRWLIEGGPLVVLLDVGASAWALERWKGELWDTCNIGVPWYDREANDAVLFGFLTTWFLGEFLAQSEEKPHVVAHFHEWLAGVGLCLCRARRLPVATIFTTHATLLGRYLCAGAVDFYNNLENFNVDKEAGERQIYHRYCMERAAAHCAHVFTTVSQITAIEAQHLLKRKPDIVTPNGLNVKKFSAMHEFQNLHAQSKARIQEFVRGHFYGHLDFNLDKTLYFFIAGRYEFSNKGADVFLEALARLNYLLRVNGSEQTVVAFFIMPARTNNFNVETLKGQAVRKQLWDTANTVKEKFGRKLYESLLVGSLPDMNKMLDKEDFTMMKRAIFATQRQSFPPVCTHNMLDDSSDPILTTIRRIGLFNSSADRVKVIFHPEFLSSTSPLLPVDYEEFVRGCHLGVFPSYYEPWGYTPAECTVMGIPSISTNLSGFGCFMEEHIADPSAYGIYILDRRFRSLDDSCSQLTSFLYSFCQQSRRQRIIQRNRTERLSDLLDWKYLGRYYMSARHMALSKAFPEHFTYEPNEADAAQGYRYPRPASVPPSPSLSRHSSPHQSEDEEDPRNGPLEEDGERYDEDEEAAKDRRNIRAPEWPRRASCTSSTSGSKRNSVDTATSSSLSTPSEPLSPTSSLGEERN
Chain of hGYS1 enzyme (recombinant hGYS1/GN1 protein) (P46976 whole entry partner): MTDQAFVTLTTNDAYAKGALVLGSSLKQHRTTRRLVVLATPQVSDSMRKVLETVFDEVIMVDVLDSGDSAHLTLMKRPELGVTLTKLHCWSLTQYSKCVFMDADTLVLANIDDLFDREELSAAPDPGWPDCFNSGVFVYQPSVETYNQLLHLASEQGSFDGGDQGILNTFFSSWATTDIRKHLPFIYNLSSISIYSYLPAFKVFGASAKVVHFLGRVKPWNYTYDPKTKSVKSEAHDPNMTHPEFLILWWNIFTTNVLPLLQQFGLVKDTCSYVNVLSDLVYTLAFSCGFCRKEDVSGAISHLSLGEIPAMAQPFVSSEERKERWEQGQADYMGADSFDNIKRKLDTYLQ
Chain of hGYS2 enzyme (recombinant hGYS2/GN1 protein) (P54840 whole entry): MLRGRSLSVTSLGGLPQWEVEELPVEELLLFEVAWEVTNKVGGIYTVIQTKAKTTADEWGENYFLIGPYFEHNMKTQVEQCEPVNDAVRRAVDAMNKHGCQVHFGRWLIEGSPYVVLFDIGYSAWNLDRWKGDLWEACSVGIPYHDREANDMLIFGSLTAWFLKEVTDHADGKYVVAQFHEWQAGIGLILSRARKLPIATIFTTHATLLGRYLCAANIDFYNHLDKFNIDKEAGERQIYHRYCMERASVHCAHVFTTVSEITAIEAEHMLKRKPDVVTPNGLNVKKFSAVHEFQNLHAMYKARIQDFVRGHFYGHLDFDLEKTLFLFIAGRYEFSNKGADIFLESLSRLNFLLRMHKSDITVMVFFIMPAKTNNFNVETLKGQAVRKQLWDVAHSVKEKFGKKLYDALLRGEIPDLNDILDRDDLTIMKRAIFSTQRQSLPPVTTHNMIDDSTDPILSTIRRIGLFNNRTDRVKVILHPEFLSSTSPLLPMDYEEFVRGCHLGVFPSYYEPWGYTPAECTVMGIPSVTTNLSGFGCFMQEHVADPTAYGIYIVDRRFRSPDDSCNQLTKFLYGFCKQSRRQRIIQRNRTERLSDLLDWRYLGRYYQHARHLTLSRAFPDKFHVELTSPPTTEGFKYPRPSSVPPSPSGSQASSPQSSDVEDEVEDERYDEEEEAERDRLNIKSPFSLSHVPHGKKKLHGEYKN
Chain of hGYS2 enzyme (recombinant hGYS2/GN1 protein) (P46976 whole entry partner): as the sequence (P46976 whole entry partner) above

Structure (SMILES) | IC50 [1] | IC50 [2] | IC50 [3]
CC(C)c1ccc([C@@H](NC(=O)[C@@H]2C[C@@H](F)CN2C(=O)CCn2nc3ccccn3c2=O)c2ccccc2)nc1F [Compound 780, (2S,4R)-4-fluoro-N-[(S)-[6-fluoro-5-(propan-2-yl)pyridin-2-yl](phenyl)methyl]-1-{3-{3-oxo-2H,3H-[1,2,4]triazolo[4,3-a]pyridin-2-yl}propanoyl)pyrrolidine-2-carboxamide] | 280 nM | 9 nM | > 100000 nM
CC(C)c1ccc([C@@H](NC(=O)[C@@H]2C[C@@H](F)CN2C(=O)Cn2cccn2)c2ccccc2)nc1F [Compound 781, (2S,4R)-4-fluoro-N-[(S)-[6-fluoro-5-(propan-2-yl)pyridin-2-yl](phenyl)methyl]-1-[2-(1H-pyrazol-1-yl)acetyl]pyrrolidine-2-carboxamide] | 270 nM | 11 nM | > 100000 nM
Cc1cc(CC(=O)N2C[C@H](F)C[C@H]2C(=O)N[C@@H](c2ccccc2)c2ccc(C(C)C)c(F)n2)c[nH]c1=O [Compound 784, (2S,4R)-4-fluoro-N-[(S)-[6-fluoro-5-(propan-2-yl)pyridin-2-yl](phenyl)methyl]-1-[2-(5-methyl-6-oxo-1,6-dihydropyridin-3-yl)acetyl]pyrrolidine-2-carboxamide] | 310 nM | 5 nM | > 100000 nM
CC(C)c1ccc([C@@H](NC(=O)[C@@H]2C[C@@H](F)CN2C(=O)Cn2cc(C(F)(F)F)cn2)c2ccccc2)nc1F [Compound 788] | 340 nM | 20 nM | > 100000 nM
CC(C)c1ccc([C@@H](NC(=O)[C@@H]2C[C@@H](F)CN2C(=O)Cn2ccc(C(F)F)n2)c2ccccc2)nc1F [Compound 789, (2S,4R)-1-{2-[3-(difluoromethyl)-1H-pyrazol-1-yl]acetyl}-4-fluoro-N-[(S)-[6-fluoro-5-(propan-2-yl)pyridin-2-yl](phenyl)methyl] pyrrolidine-2-carboxamide] | 280 nM | 10 nM | > 100000 nM
CC(C)c1ccc([C@@H](NC(=O)[C@@H]2C[C@@H](F)CN2C(=O)Cn2ccc(C(F)(F)F)n2)c2ccccc2)nc1F [Compound 790, (2S,4R)-4-fluoro-N-[(S)-[6-fluoro-5-(propan-2-yl)pyridin-2-yl](phenyl)methyl]-1-{2-[3-(trifluoromethyl)-1H-pyrazol-1-yl]acetyl} pyrrolidine-2-carboxamide] | 250 nM | 8 nM | > 100000 nM
CC(C)c1ccc([C@@H](NC(=O)[C@@H]2C[C@@H](F)CN2C(=O)Cc2ccc(=O)[nH]c2)c2ccccc2)nc1F [Compound 791, (2S,4R)-4-fluoro-N-[(S)-[6-fluoro-5-(propan-2-yl)pyridin-2-yl](phenyl)methyl]-1-[2-(6-oxo-1,6-dihydropyridin-3-yl)acetyl]pyrrolidine-2-carboxamide] | 390 nM | 7 nM | > 100000 nM
CC(C)c1ccc([C@@H](NC(=O)[C@@H]2C[C@@H](F)CN2C(=O)Cc2ccc[nH]c2=O)c2ccccc2)nc1F [Compound 793, (2S,4R)-4-fluoro-N-[(S)-[6-fluoro-5-(propan-2-yl)pyridin-2-yl](phenyl)methyl]-1-[2-(2-oxo-1,2-dihydropyridin-3-yl)acetyl]pyrrolidine-2-carboxamide] | 580 nM | 12 nM | > 100000 nM
CCn1cccc(CC(=O)N2C[C@H](F)C[C@H]2C(=O)N[C@@H](c2ccccc2)c2ccc(C(C)C)c(F)n2)c1=O [Compound 795, (2S,4R)-1-[2-(1-ethyl-2-oxo-1,2-dihydropyridin-3-yl)acetyl]-4-fluoro-N-[(S)-[6-fluoro-5-(propan-2-yl)pyridin-2-yl](phenyl)methyl] pyrrolidine-2-carboxamide] | 240 nM | 11 nM | > 100000 nM

The next compounds have a lower IC50 [1] than those just listed; values first:

IC50 [1] | IC50 [2] | IC50 [3] | Structure (SMILES)
220 nM | 11 nM | > 100000 nM | Cc1ccnn1CC(=O)N1C[C@H](F)C[C@H]1C(=O)N[C@@H](c1ccccc1)c1ccc(C(C)C)c(F)n1 [Compound 782, (2S,4R)-4-fluoro-N-[(S)-[6-fluoro-5-(propan-2-yl)pyridin-2-yl](phenyl)methyl]-1-[2-(5-methyl-1H-pyrazol-1-yl)acetyl] pyrrolidine-2-carboxamide]
80 nM | 5 nM | > 100000 nM | CC(C)c1ccc([C@@H](NC(=O)[C@@H]2C[C@@H](F)CN2C(=O)Cn2nccc2C(F)F)c2ccccc2)nc1F [Compound 783, (2S,4R)-1-{2-[5-(difluoromethyl)-1H-pyrazol-1-yl]acetyl}-4-fluoro-N-[(S)-[6-fluoro-5-(propan-2-yl)pyridin-2-yl](phenyl)methyl] pyrrolidine-2-carboxamide]
130 nM | 6 nM | > 100000 nM | CC(C)c1ccc([C@@H](NC(=O)[C@@H]2C[C@@H](F)CN2C(=O)Cn2ccc(=O)[nH]c2=O)c2ccccc2)nc1F [Compound 785, (2S,4R)-1-[2-(2,4-dioxo-1,2,3,4-tetrahydropyrimidin-1-yl)acetyl]-4-fluoro-N-[(S)-[6-fluoro-5-(propan-2-yl)pyridin-2-yl](phenyl)methyl] pyrrolidine-2-carboxamide]
50 nM | 3 nM | > 100000 nM | CCn1c(=O)ccn(CC(=O)N2C[C@H](F)C[C@H]2C(=O)N[C@@H](c2ccccc2)c2ccc(C(C)C)c(F)n2)c1=O [Compound 786, (2S,4R)-1-[2-(3-ethyl-2,4-dioxo-1,2,3,4-tetrahydropyrimidin-1-yl)acetyl]-4-fluoro-N-[(S)-[6-fluoro-5-(propan-2-yl)pyridin-2-yl](phenyl)methyl] pyrrolidine-2-carboxamide]
210 nM | 6 nM | > 100000 nM | CCn1cc(CC(=O)N2C[C@H](F)C[C@H]2C(=O)N[C@@H](c2ccccc2)c2ccc(C(C)C)c(F)n2)ccc1=O [Compound 792, (2S,4R)-1-[2-(1-ethyl-6-oxo-1,6-dihydropyridin-3-yl)acetyl]-4-fluoro-N-[(S)-[6-fluoro-5-(propan-2-yl)pyridin-2-yl](phenyl)methyl] pyrrolidine-2-carboxamide]
40 nM | 2 nM | > 100000 nM | CCn1c(=O)c(C)cn(CC(=O)N2C[C@H](F)C[C@H]2C(=O)N[C@@H](c2ccccc2)c2ccc(C(C)C)c(F)n2)c1=O [Compound 794, (2S,4R)-1-[2-(3-ethyl-5-methyl-2,4-dioxo-1,2,3,4-tetrahydropyrimidin-1-yl)acetyl]-4-fluoro-N-[(S)-[6-fluoro-5-(propan-2-yl)pyridin-2-yl](phenyl)methyl] pyrrolidine-2-carboxamide]
